{"source": "patent US20070031907A1", "about": "“Anaplastic lymphoma kinase assay, reagents and compositions thereof” (Istituto Nazionale Per Lo Studio E La Cura Dei Tumori, priority 2003, published 2007)", "molecular_target": "T1, purified rALK (Homo sapiens, UniProt Q9UM73)", "T1 construct": "A portion of ALK, stretching from amino acids Leu^1073 to Ala^1459, has been cloned into the baculovirus transfer vector; made in house; host or cells: Sf9 (Spodoptera frugiperda) insect cells, baculovirus (pBlueBacHis2C, MaxBac 2.0)", "T1 sequence (Q9UM73 1073-1459)": "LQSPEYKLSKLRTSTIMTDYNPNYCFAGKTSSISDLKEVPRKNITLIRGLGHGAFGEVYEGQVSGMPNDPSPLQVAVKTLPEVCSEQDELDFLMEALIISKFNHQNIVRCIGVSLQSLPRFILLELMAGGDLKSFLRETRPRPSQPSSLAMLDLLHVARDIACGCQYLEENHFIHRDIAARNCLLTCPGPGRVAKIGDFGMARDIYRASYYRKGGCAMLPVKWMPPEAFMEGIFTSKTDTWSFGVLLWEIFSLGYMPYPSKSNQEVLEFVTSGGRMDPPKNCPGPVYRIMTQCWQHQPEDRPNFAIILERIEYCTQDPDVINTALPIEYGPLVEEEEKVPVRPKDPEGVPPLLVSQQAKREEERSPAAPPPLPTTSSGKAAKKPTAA", "experiment": "ELISA-based in vitro kinase assay", "assay_type": "biochemical", "method": "ELISA-based in vitro Kinase Assay A Nunc Immuno 96 well plate was incubated overnight at 37° C. with coating solution (125 μl/well) containing ALK peptide substrate (SEQ ID N. 1 or SEQ ID N. 2) at various concentrations in PBS. The wells were then washed with 200 μl of wash buffer (PBS-Tween 0.05%) and left to dry for at least 2 hours at 37° C. […] The reaction mix was then removed and wells were washed 5 times with 200 μl of wash buffer. Phosphorylated peptide was detected using 100 μl/well of a mouse monoclonal anti-phosphotyrosine antibody (clone 4G10 UpstateBiotech Ltd) diluted 1:500 in PBS+4% BSA. After 30 minutes incubation at room temperature the antibody was removed and wells were washed as described above. 100 μl of a secondary antibody (anti-mouse IgG, Horseradish Peroxidase linked whole antibody, from sheep, Amersham Pharmacia Biotech) diluted 1:1000 in PBS+4% BSA was added to each well and the plate was incubated again for 30 minutes at room temperature before washing as above. The plate was developed using 100 μl/well TMB Substrate Solution (Endogen) and the reaction was stopped by adding an equal volume of H2SO4 0.18 M. Finally, the absorbance was read at 450 or 490 nm using an Ultrospec® 300 spectrophotometer (Amersham-Pharmacia Biotech)."}
{"smiles": "CN[C@@H]1C[C@H]2O[C@@](C)([C@@H]1OC)n1c3ccccc3c3c4c(c5c6ccccc6n2c5c31)C(=O)NC4", "note": "[Staurosporine]", "values": [{"measurement": "concentration reaching maximum inhibition of rALK activity", "setting": "42 μM peptide substrate, 20 ng rALK, 30° C., 15 mins", "value": 1, "unit": "µM"}, {"measurement": "concentration at which effective as an ALK inhibitor", "setting": "positive control for screening", "value": "0.2 to 0.3", "unit": "µM"}]}
